From US7777000B2, “Anti-viral activity of cathelicidin peptides” (priority 2003, dated 2010)
Where “and” joins values, the source holds several entries; their conditions need not be identical. Equal entries are not always repeated. Entries after “also recorded” stand apart in the source; their conditions may differ. Where no end group is shown, it is not given here.

Experiments:
vaccinia virus [1] = format: cell-based, vaccinia virus (Wyeth strain)
E. coli ML35p = experiment: Minimum bactericidal concentration / antimicrobial activity against E. coli ML35p; format: cell-based; conditions: for Minimum Bactericidal Concentration: mean of three independent experiments
vaccinia virus [2] = format: cell-based, vaccinia virus (Wyeth strain); remark: listed apart in the source
vaccinia virions (IMV) = system: vaccinia virions (IMV); design: species or system vaccinia virus (Wyeth strain); conditions: for alteration of virion structure: 25 μM

Compound	contact time with vaccinia required to detect antiviral activity (vaccinia virus [1])	effective antiviral concentration relative to that required for killing of S. aureus (vaccinia virus [1])	lowest concentration with significant reduction in viral replication (vaccinia virus [1])	antimicrobial activity against E. coli ML35p (E. coli ML35p)	amount of viral mRNA in the tissue culture cells (vaccinia virus [2])	Altered virions (%) (vaccinia virions (IMV))	Altered virions/virion number (vaccinia virions (IMV))	inhibition of vaccinia virus replication (plaque-forming units) (vaccinia virus [1])	effect on the structure of the IMV (electron microscopy) (vaccinia virions (IMV))	alteration of virion structure (vaccinia virions (IMV))	inhibition of vaccinia virus replication at concentrations as high as 50 μM (vaccinia virus [1])	Minimum Bactericidal Concentration (E. coli ML35p)	Minimum Bactericidal Concentration (E. coli ML35p; listed as HNP)
CC[C@H](C)[C@H](NC(=O)[C@H](CCCCN)NC(=O)[C@H](CCC(=O)O)NC(=O)[C@H](CCCCN)NC(=O)[C@H](CO)NC(=O)[C@H](CCCCN)NC(=O)[C@H](CCCNC(=N)N)NC(=O)[C@H](Cc1ccccc1)NC(=O)[C@H](Cc1ccccc1)NC(=O)[C@H](CC(=O)O)NC(=O)CNC(=O)[C@H](CC(C)C)NC(=O)[C@@H](N)CC(C)C)C(=O)NCC(=O)N[C@@H](CCCCN)C(=O)N[C@@H](CCC(=O)O)C(=O)N[C@@H](Cc1ccccc1)C(=O)N[C@@H](CCCCN)C(=O)N[C@@H](CCCNC(=N)N)C(=O)N[C@H](C(=O)N[C@H](C(=O)N[C@@H](CCC(N)=O)C(=O)N[C@@H](CCCNC(=N)N)C(=O)N[C@H](C(=O)N[C@@H](CCCCN)C(=O)N[C@@H](CC(=O)O)C(=O)N[C@@H](Cc1ccccc1)C(=O)N[C@@H](CC(C)C)C(=O)N[C@@H](CCCNC(=N)N)C(=O)N[C@@H](CC(N)=O)C(=O)N[C@@H](CC(C)C)C(=O)N[C@H](C(=O)N1CCC[C@H]1C(=O)N[C@@H](CCCNC(=N)N)C(=O)N[C@H](C(=O)N[C@@H](CCC(=O)O)C(=O)N[C@@H](CO)C(=O)O)[C@@H](C)O)C(C)C)[C@@H](C)CC)C(C)C)[C@@H](C)CC [LL-37, LLGDFFRKSK EKIGKEFKR1 VQRIKDFLRN LVPRTES]	At least one hour	at least one log lower	25 µM	within reported parameters	decreased in proportion to the concentration	67% and 90% and 95%	19/28 and 27/30 and 39/41	–	–	–	–	–	–
GLLRKGGEKIGEKLKKIGQKIKNFFQKLVPQPEQ (GLLRKGGEKIGEKLKKIGQKIKNFFQKLVPQPEQ) [CRAMP]	–	at least one log lower	25 µM	within reported parameters	decreased in proportion to the concentration	–	–	concentration-dependent inhibition; also recorded: able to kill vaccinia virus	–	–	–	–	–
GLNGPDIYKGUYQFKSVEFD [Peptide 8044]	–	–	–	no antimicrobial activity; also recorded: did not exhibit antimicrobial activity; also recorded: ^aControl peptide 8044 did not possess antimicrobial activity against ML35p	–	–	–	did not inhibit virus replication; also recorded: no antiviral activity	did not have an effect on virion structure	*25 μM HNP-1 and control peptides did not alter virion structure	–	–	–
HBD-1 (DHYNCVSSGGQCLYSACPIFTKIQGTCYRGKAKCCK; ends and bridges not checked; cysteine pairing not given here; UniProt P60022 33-68, looked up)	–	–	–	–	–	–	–	did not inhibit viral replication	–	–	did not inhibit vaccinia virus replication	16.02 µM and 16.03 ± 1.20 µM	–
HNP-1	–	–	–	active against E. coli	–	–	–	did not inhibit virus replication; also recorded: did not inhibit viral replication	did not have an effect on virion structure	*25 μM HNP-1 and control peptides did not alter virion structure	did not inhibit vaccinia virus replication	–	8.42 µM and 8.42 ± 0.43 µM
